Measured values: US10975082B2, “Inhibitor of FLT3 kinase and use thereof” (PRECEDO PHARMACEUTICALS CO., LTD, priority 2016, dated 2021)

Tests used:
PARP and Caspase 3 = test: Cell apoptosis, Western Blot of PARP and Caspase 3 cleavage
Description: Western Blot was used to detect the effects of different concentrations of compounds on protein cleavage of the DNA repairase poly(ADP-ribose) polymerase (PARP) and Caspase (cysteinyl aspartate-specific proteinase) 3, wherein glyceraldehyde-3-phosphate dehydrogenase (GAPDH) was used as the internal standard protein.

STAT5 = test: Signaling pathways of FLT3 in cells: STAT5 phosphorylation; assay type: cell-based, human; conditions: MV-4-11, MOLM-13 and MOLM-14 cells, 4 hours; Compound 1 0.001-0.3 μM, AC220 0.1 μM
MOLM-14 cells = test: Nude mouse model harboring subcutaneous tumor; assay type: in vivo; conditions: 28 days
Protocol: The first day of administration was recorded as day 0, followed by continuous administration for 28 days (FIG. 4).

[1] = tested on: MOLM-13, MOLM-14 and MV-4-11 cell lines; test: Cell cycle distribution by flow cytometry (PI); assay type: cell-based, human; conditions: MOLM-13, MOLM-14 and MV-4-11, 12 or 24 hours; Compound 1 0.01-0.1 μM, AC220 0.1 μM
MV-4-11 = test: Cancer cell proliferation, Cell Titer-Glo, GI50; assay type: cell-based; conditions: Homo sapiens, MV4-11; MV-4-11, 72 hours
Protocol: (§1) Compounds of the invention were evaluated for their inhibitory effects on proliferation of cancer cells as well as the selectivity thereof by testing their effects on growth of cancer cells (Table 2).
(§2) In this example the following cells were selected: human acute myeloid leukemia cells MV-4-11 (expressing FLT3[ITD] mutant gene), human acute myeloid leukemia cells MOLM-13 (expressing FLT3[ITD] mutant gene and wild-type FLT3 gene), human acute myeloid leukemia cells MOLM-14 (expressing FLT3[ITD] mutant gene and wild-type FLT3 gene), human acute myeloid leukemia cells OCI-AML3 (expressing FLT3[A680V] mutant gene), human acute myeloid leukemia cells U937 (expressing wild-type FLT3 gene), and mouse pro-B cells BaF3, and the above cells were purchased from ATCC.
(§3) Then the number of viable cells was determined by quantification of ATP in living cells using Cell Titer-Glo® (Promega, the USA) Luminescent Cell Viability Assay kit and thereby GI50 was calculated.

MOLM-14 = test: Cancer cell proliferation, Cell Titer-Glo, GI50; assay type: cell-based; conditions: Homo sapiens; MOLM-14, 72 hours
Protocol: as §1, §2, §3

U937 = test: Cancer cell proliferation, Cell Titer-Glo, GI50; assay type: cell-based; conditions: Homo sapiens, U-937; U937, 72 hours
Protocol: as §1, §2, §3

BaF3-TEL-PEGFRb = test: Cell proliferation, Cell Titer-Glo, GI50; assay type: cell-based; conditions: Mus musculus, 72 hours
Protocol: as §1
(§4) Mouse BaF3-FLT3[ITD] (stably expressing FLT3[ITD] mutant activated kinase), mouse tel-BaF3-FLT3-D835Y (stably expressing FLT3[D835Y]mutant activated kinase), mouse tel-BaF3-BMX (stably expressing BMX kinase), mouse tel-FLT3-BaF3 (stably expressing FLT3 kinase), mouse BaF3-FLT3-ITD-D835Y (stably expressing FLT3[ITD+D835Y]mutant activated kinase), mouse BaF3-FLT3-ITD-F691L (stably expressing FLT3[ITD+F691L]mutant activated kinase), mouse tel-cKIT-BaF3 (stably expressing cKIT kinase), mouse BaF3-tel-cKit-N882K (stably expressing cKIT-N882K mutant activated kinase), mouse BaF3-tel-cKit-D816V (stably expressing cKIT-D816V mutant activated kinase), mouse BaF3-tel-cKit-T670I (stably expressing cKIT-T670I mutant activated kinase), mouse TPR-MET-BaF3 (stably expressing MET kinase), mouse tel-BaF3-EGFR (stably expressing EGFR kinase), mouse BaF3-FL-EGFR-L858R (stably expressing EGFR[L858R]mutant activated kinase), mouse tel-BaF3-BLK (stably expressing BLK kinase), mouse tel-JAK1-BaF3 (stably expressing JAK1 kinase) and the like were also used (see Table 2 for details). The above cell lines were all constructed by our laboratory according to the following method: the kinase region sequences of human FLT3/ITD, FLT3 D835Y, BMX, FLT3, FLT3[ITD+D835Y], FLT3[ITD+F691L], cKIT, cKIT [N882K], cKIT [D816V], cKIT [T670I], MET, EGFR, EGFR [L858R], BLK, JAK1, FLT3[K663Q], FLT3[D835V], FLT3[D835H], PDGFRa, PEGFRb, VEGFR2, JAK2, JAK3, ABL were amplified by PCR, and inserted into MSCV-Puro vectors with N-terminal TEL or TPR fragments (purchased from Clontech), respectively. The vectors were stably transfected into mouse BaF3 cells (purchased from ATCC) by means of retrovirus, and the growth factor IL-3 were removed, eventually obtaining cell lines that are transferred protein (FLT3/ITD, FLT3 D835Y, BMX, FLT3, FLT3[ITD D835Y], FLT3[ITD+F691L], cKIT, cKIT [N882K], cKIT [D816V], cKIT [T670I], MET, EGFR, EGFR [L858R], BLK, JAK1, FLT3[K663Q], FLT3[D835V], FLT3[D835H], PDGFRa, PEGFRb, VEGFR2, JAK2, JAK3, ABL)-dependent.
as §3

BaF3-TEL-cKit [D816V] = test: Cell proliferation, Cell Titer-Glo, GI50; assay type: cell-based; conditions: Mus musculus, 72 hours
Protocol: as §1, §4, §3

BaF3-TEL-FLT3 [D835Y] = test: Cell proliferation, Cell Titer-Glo, GI50; assay type: cell-based; conditions: Mus musculus, 72 hours
Protocol: as §1, §4, §3

BaF3-TEL-cKit [N882K] = test: Cell proliferation, Cell Titer-Glo, GI50; assay type: cell-based; conditions: Mus musculus, 72 hours
Protocol: as §1, §4, §3

BaF3-TEL-cKit [T670I] = test: Cell proliferation, Cell Titer-Glo, GI50; assay type: cell-based; conditions: Mus musculus, 72 hours
Protocol: as §1, §4, §3

BaF3-TEL-FLT3 [D835H] = test: Cell proliferation, Cell Titer-Glo, GI50; assay type: cell-based; conditions: Mus musculus, 72 hours
Protocol: as §1, §4, §3

BaF3-TEL-FLT3 [K663Q] = test: Cell proliferation, Cell Titer-Glo, GI50; assay type: cell-based; conditions: Mus musculus, 72 hours
Protocol: as §1, §4, §3

BaF3-TEL-cKIT = test: Cell proliferation, Cell Titer-Glo, GI50; assay type: cell-based; conditions: Mus musculus, 72 hours
Protocol: as §1, §4, §3

BaF3-TEL-FLT3 = test: Cell proliferation, Cell Titer-Glo, GI50; assay type: cell-based; conditions: Mus musculus; BaF3-TEL-FLT3, 72 hours
Protocol: as §1, §4, §3

BaF3-FLT3 [ITD + D835Y] = test: Cell proliferation, Cell Titer-Glo, GI50; assay type: cell-based; conditions: Mus musculus, Ba/F3 FLT3-ITD, 72 hours
Protocol: as §1, §4, §3

BaF3-TEL-PDGFRa = test: Cell proliferation, Cell Titer-Glo, GI50; assay type: cell-based; conditions: Mus musculus, 72 hours
Protocol: as §1, §4, §3

BaF3-TEL-BMX = test: Cell proliferation, Cell Titer-Glo, GI50; assay type: cell-based; conditions: Mus musculus, 72 hours
Protocol: as §1, §4, §3

BaF3-FLT3 [ITD + F691L] = test: Cell proliferation, Cell Titer-Glo, GI50; assay type: cell-based; conditions: Mus musculus, Ba/F3 FLT3-ITD, 72 hours
Protocol: as §1, §4, §3

BaF3-FLT3 [ITD] = test: Cell proliferation, Cell Titer-Glo, GI50; assay type: cell-based; conditions: Mus musculus, Ba/F3 FLT3-ITD, 72 hours
Protocol: as §1, §4, §3

BaF3-TEL-FLT3 [D835V] = test: Cell proliferation, Cell Titer-Glo, GI50; assay type: cell-based; conditions: Mus musculus, 72 hours
Protocol: as §1, §4, §3

BaF3 = test: Cell proliferation, Cell Titer-Glo, GI50; assay type: cell-based; conditions: Mus musculus; BaF3, 72 hours
Protocol: as §1, §2, §3

**Q.** For `CC(C)(C)c1cc(NC(=O)Nc2ccc(-n3nc(-c4ccc(OCCN5CCOCC5)cc4)c4c(N)ncnc43)cc2)no1` [Compound 1, 1-(4-(4-amino-3-(4-(2-morpholinoethoxy)phenyl)-1H-pyrazolo[3,4-d]pyrimidin-1-yl)phenyl)-3-(5-(tert-butyl)isoxazol-3-yl)urea], which “cleavage of Caspase 3” value (PARP and Caspase 3; MOLM-13, 0.003 μM, 12 hours) is on record?
**A.** The value was “significant cleavage”.

**Q.** What about the “cleavage of the DNA repairase poly(ADP-ribose) polymerase (PARP)” value (PARP and Caspase 3; MOLM-13, 0.003 μM, 12 hours) of the same molecule?
**A.** The value was “significant cleavage”.

**Q.** What about the “cleavage of the DNA repairase poly(ADP-ribose) polymerase (PARP)” value (PARP and Caspase 3; MV-4-11, 24 hours) of the same molecule?
**A.** The value was “even more significant”.

**Q.** What about the “phosphorylation of STAT5” value (STAT5) of the same molecule?
**A.** Its value is “significant inhibition”.

**Q.** What about the mice body weight (MOLM-14 cells; 3.75 mg/kg daily oral gavage) of the same molecule?
**A.** The mice body weight was “no significant decrease”.

**Q.** And the mice body weight (MOLM-14 cells; 15 mg/kg daily oral gavage)?
**A.** The mice body weight was “did not decrease”.

**Q.** And the mice body weight (MOLM-14 cells; […] daily oral gavage)?
**A.** Its mice body weight is “did not decrease”.

**Q.** And the cell cycle distribution [1]?
**A.** Its cell cycle distribution is “arrested the cell cycle at phase G0-G1”.

**Q.** With `CC(=O)N1CCN(Cc2ccc(-c3nn(-c4ccc(NC(=O)Nc5cc(C(C)(C)C)on5)cc4)c4ncnc(N)c34)cc2)CC1` [Compound 21, 1-(4-(3-(4-((4-acetylpiperazin-1-yl)methyl)phenyl)-4amino-1H-pyrazolo[3,4-d]pyrimidin-1-yl)phenyl)-3-(5-(tert-butyl)isoxazol-3-yl)urea] as the molecule, how does the GI50 (MV-4-11) read?
**A.** The GI50 was under 0.3 nM.

**Q.** What about the GI50 (MOLM-14) of the same molecule?
**A.** Its GI50 is under 0.3 nM.

**Q.** And the GI50 (U937)?
**A.** Its GI50 is 2.3 µM.

**Q.** And the GI50 (BaF3-TEL-PEGFRb)?
**A.** The GI50 was 10 nM.

**Q.** What about the GI50 (BaF3-TEL-cKit [D816V]) of the same molecule?
**A.** Its GI50 is 1800 nM.

**Q.** What about the GI50 (BaF3-TEL-FLT3 [D835Y]) of the same molecule?
**A.** Its GI50 is 9 nM.

**Q.** What about the GI50 (BaF3-TEL-cKit [N882K]) of the same molecule?
**A.** Its GI50 is 10 nM.

**Q.** And the GI50 (BaF3-TEL-cKit [T670I])?
**A.** Its GI50 is 4 nM.

**Q.** What about the GI50 (BaF3-TEL-FLT3 [D835H]) of the same molecule?
**A.** The GI50 was under 0.3 nM.

**Q.** What about the GI50 (BaF3-TEL-FLT3 [K663Q]) of the same molecule?
**A.** Its GI50 is 3.6 µM.

**Q.** What about the GI50 (BaF3-TEL-cKIT) of the same molecule?
**A.** Its GI50 is 31 nM.

**Q.** What about the GI50 (BaF3-TEL-FLT3) of the same molecule?
**A.** Its GI50 is 1 nM.

**Q.** What about the GI50 (BaF3-FLT3 [ITD + D835Y]) of the same molecule?
**A.** The GI50 was 59 nM.

**Q.** And the GI50 (BaF3-TEL-PDGFRa)?
**A.** Its GI50 is 2 nM.

**Q.** And the GI50 (BaF3-TEL-BMX)?
**A.** The GI50 was 5.3 µM.

**Q.** And the GI50 (BaF3-FLT3 [ITD + F691L])?
**A.** Its GI50 is 120 nM.

**Q.** What about the GI50 (BaF3-FLT3 [ITD]) of the same molecule?
**A.** Its GI50 is under 0.3 nM.

**Q.** What about the GI50 (BaF3-TEL-FLT3 [D835V]) of the same molecule?
**A.** The GI50 was 4 nM.

**Q.** And the GI50 (BaF3)?
**A.** The GI50 was about 10 µM.

**Q.** Which results are given for `CC(C)(C)c1cc(NC(=O)Nc2ccc(-n3nc(-c4ccc(OCCN5CCN(S(C)(=O)=O)CC5)cc4)c4c(N)ncnc43)cc2)no1` [Compound 22, 1-(4-(4-amino-3-(4-(2-(4-(methanesulfonyl)piperazin-1-yl)ethoxy)phenyl)-1H-pyrazolo[3,4-d]pyrimidin-1-yl)phenyl)-3-(5-(tert-butyl)isoxazol-3-yl)urea]?
**A.** GI50 (MV-4-11): < 0.3 nM; GI50 (MOLM-14): < 0.3 nM; GI50 (U937): 8.5 µM; GI50 (BaF3-TEL-PEGFRb): 12 nM; GI50 (BaF3-TEL-cKit [D816V]): 2200 nM; GI50 (BaF3-TEL-FLT3 [D835Y]): 20 nM; GI50 (BaF3-TEL-cKit [N882K]): 15 nM; GI50 (BaF3-TEL-cKit [T670I]): 13 nM; GI50 (BaF3-TEL-FLT3 [D835H]): 4 nM; GI50 (BaF3-TEL-FLT3 [K663Q]): 3.8 µM; GI50 (BaF3-TEL-cKIT): 40 nM; GI50 (BaF3-TEL-FLT3): 1 nM; GI50 (BaF3-FLT3 [ITD + D835Y]): 100 nM; GI50 (BaF3-TEL-PDGFRa): 2 nM; GI50 (BaF3-TEL-BMX): 2 µM; GI50 (BaF3-FLT3 [ITD + F691L]): 39 nM; GI50 (BaF3-FLT3 [ITD]): < 0.3 nM; GI50 (BaF3-TEL-FLT3 [D835V]): 17 nM; GI50 (BaF3): 6.5 µM
